Results from patent US5177240A, “o-Phosphono(alkyl)-N-sulfonyl-phenyl-alanine derivatives useful as intermediates for preparation of phosphono-hydroisoquinolines” (G. D. Searle & Co., priority 1990, dated 1993).

Legend:
NMDA receptor = NMDA receptor binding assay (NMDA-specific L-[3H]-glutamate binding, synaptic plasma membranes); settings: 12.5 nM L-[3H]-glutamate, pH 7.4, 0-4° C., 10 min
Protocol: Synaptic plasma membranes (SPM) were prepared as previously described Monahan, J. B. and Michel, J., "Identification and Characterization of an N-methyl-D-aspartate-specific L-[^3 H]-glutamate Recognition Site in Synaptic Plasma Membranes, J. Neurochem., 48, 1699-1708 (1987)]. The SPM were stored at a concentration of 10-15 mg/ml in 0.32M sucrose, 0.5 mM EDTA, 1 mM MgSO4, 5 mM Tris/sulfate, pH 7.4, under liquid nitrogen. The identity and purity of the subcellular fractions were confirmed by both electron microscopy and marker enzymes. Protein concentrations were determined by using a modification of the method of Lowry [Ohnishi, S. T. and Barr, J. K., "A Simplified Method of Quantitating Proteins Using the Biuret and Phenol Reagents", Anal. Biochem., 86, 193-197 (1978)]. The SPM were treated identically for the [^3 H]AMPA (QUIS), [^3 H]kainate and sodium-dependent L-[^3 H]-glumatate binding assays. The SPM were thawed at room temperature, diluted twenty-fold with 50 mM Tris/acetate, pH 7.4, incubated at 37° C. for 30 minutes, and centrifuged at 100,000 g for 15 minutes. The dilution, incubation and centrifugation were repeated a total of three times. Prior to use in the NMDA-specific L-[^3 H]-glutamate binding assay, the SPM were thawed, diluted twenty fold with 50 mM Tris/acetate (pH 7.4 containing 0.04% (v/v) Triton X-100), incubated for 30 minutes at 37° C. and centrifuged as described above. The Triton X-100 treated membranes were washed with 50 mM Tris/acetate (pH 7.4) and centrifuged at 100,000 g for 15 minutes a total of four times. The basic procedure for the receptor subclass binding assays was similar. This general method involved adding the radioligand (12.5 nM L-[^3 H]-glutamate; 0.5 nM [^3 H]kainate or 10nM [^3 H]AMPA) to the appropriate concentration of the test compound and initiating the assay by the addition of ice cold synaptic plasma membranes (0.2-0.45 mg). The binding assays were performed in 1.5 mL centrifuge tubes with the total volume adjusted to 1.0 mL. Additions of test compounds were made in 50 mM Tris/acetate (pH 7.4) and incubations were carried out at 0°-4° C. The incubation time for each of the NMDA and the AMPA binding assays was 10 minutes, for the kainate binding assay 60 minutes and for the sodium-dependent glutamate binding assay 15 minutes. The AMPA binding assay contained 100 mM KSCN and the sodium-dependent glutamate binding assay contained 150 mM sodium acetate in addition to the previously described reagents. To terminate the incubation, the samples were centrifuged for 15 minutes at 12,000 g and 4° C. in a Beckman Microfuge 12. The supernatant was aspirated and the pelleted membranes dissolved in Beckman BTS-450 tissue solubilizer for a minimum of 6 hours at room temperature. Beckman MP scintillation cocktail containing 7 mL/L acetic acid was then added and the samples counted on a Beckman LS 5800 or 3801 liquid scintillation counter with automatic corrections for quenching and counting efficiency. Nonspecific binding was defined as the residual binding in the presence of either excess L-glutamate (0.1-0.4 mM), kainate (0.01 mM), or NMDA (0.5 mM), and was 15-25% of the total binding in the NMDA binding assay, 19-27% in the AMPA binding assay, 20-30% in the kainate binding assay and 10-15% in the sodium-dependent binding assay. Radioligand binding to the synaptic plasma membranes was analyzed using Scatchard and Hill transformations and the Ki values of the compounds determined using logit-log transformations. Calculations and regression analysis were performed using templates developed for Lotus 1, 2, 3 as previously described [Pullan, L. M. "Automated Radioligand Receptor Binding Analysis with Templates for Lotus", Computer Appln. Biosci., 3 131 (1987)]. Binding results are reported in Table II for example compounds of the invention. Included in Table II are binding data for D,L-AP7[D,L-2-amino-7-phosphonoheptanoic acid].

[1] = target: Quis (quisqualate) receptor; test: Quisqualate (QUIS) receptor binding assay ([3H]AMPA, synaptic plasma membranes); settings: 10 nM [3H]AMPA, 100 mM KSCN, pH 7.4, 0-4° C., 10 min; read-out: NMDA receptor binding Ki, Quis
Protocol: (§1) Synaptic plasma membranes (SPM) were prepared as previously described Monahan, J. B. and Michel, J., "Identification and Characterization of an N-methyl-D-aspartate-specific L-[^3 H]-glutamate Recognition Site in Synaptic Plasma Membranes, J. Neurochem., 48, 1699-1708 (1987)]. The SPM were stored at a concentration of 10-15 mg/ml in 0.32M sucrose, 0.5 mM EDTA, 1 mM MgSO4, 5 mM Tris/sulfate, pH 7.4, under liquid nitrogen. The identity and purity of the subcellular fractions were confirmed by both electron microscopy and marker enzymes. Protein concentrations were determined by using a modification of the method of Lowry [Ohnishi, S. T. and Barr, J. K., "A Simplified Method of Quantitating Proteins Using the Biuret and Phenol Reagents", Anal. Biochem., 86, 193-197 (1978)]. The SPM were treated identically for the [^3 H]AMPA (QUIS), [^3 H]kainate and sodium-dependent L-[^3 H]-glumatate binding assays. The SPM were thawed at room temperature, diluted twenty-fold with 50 mM Tris/acetate, pH 7.4, incubated at 37° C. for 30 minutes, and centrifuged at 100,000 g for 15 minutes. The dilution, incubation and centrifugation were repeated a total of three times. Prior to use in the NMDA-specific L-[^3 H]-glutamate binding assay, the SPM were thawed, diluted twenty fold with 50 mM Tris/acetate (pH 7.4 containing 0.04% (v/v) Triton X-100), incubated for 30 minutes at 37° C. and centrifuged as described above. The Triton X-100 treated membranes were washed with 50 mM Tris/acetate (pH 7.4) and centrifuged at 100,000 g for 15 minutes a total of four times. The basic procedure for the receptor subclass binding assays was similar. […] Beckman MP scintillation cocktail containing 7 mL/L acetic acid was then added and the samples counted on a Beckman LS 5800 or 3801 liquid scintillation counter with automatic corrections for quenching and counting efficiency. […] Radioligand binding to the synaptic plasma membranes was analyzed using Scatchard and Hill transformations and the Ki values of the compounds determined using logit-log transformations. […]

[2] = tested on: TCP (1-[1-(2-thienyl)-cyclohexyl]piperidine) binding; test: TCP Modulation Assay ([3H]TCP binding, rat brain synaptic membranes); settings: 2 nM tritiated TCP, 0.05 mM L-glutamate, pH 7.4, 25° C., 60 min
Protocol: The effect on the TCP (1-[1-(2-thienyl)-cyclohexyl]piperidine) binding was measured in rat brain synaptic membranes (SPM) prepared as previously described [J. B. Monahan & J. Michel; J. Neurochem. 48:1699-1708 (1987)]. Prior to their use in the binding assay, frozen SPM were thawed, diluted twenty fold with 50 mM Tris/acetate (pH 7.4 containing 0.04% (v/v) Triton X-100), incubated for 30 min. at 37° C. and centrifuged at 95,000×g for 15 min. The Triton X-100 treated SPM were washed with 5 mM Tris/HCl, pH 7.4 and centrifuged a total of six times. The compound of Example II was incubated at different concentrations with SPM (0.2-0.4 mg protein) and 2 nM tritiated TCP, in a total volume of 0.5 ml of 5 mM Tris/HCl buffer pH 7.4 at 25° C. for 60 min. The samples were filtered through glass fiber filters (Schleicher & Schuell #32) which have been pretreated with 0.05% (v/v) polyethylenimine, washed 4 times with 2 ml of ice-cold 5 mM Tris/HCl buffer, and then counted on a Beckman LS 5800 liquid scintillation counter with automatic corrections for quenching and counting efficiency. Inhibition of TCP binding was measured as a decrease in the binding in the presence of 0.05 mM L-glutamate. Non-specific binding was defined as the residual binding in the presence of 60 […].

KA (kainate) receptor = test: Kainate (KA) receptor binding assay ([3H]kainate, synaptic plasma membranes); settings: 0.5 nM [3H]kainate, pH 7.4, 0-4° C., 60 min
Protocol: as §1, with “assays.” for “assays. The SPM were thawed at room temperature, diluted twenty-fold with 50 mM Tris/acetate, pH 7.4, incubated at 37° C. for 30 minutes, and centrifuged at 100,000 g for 15 minutes. The dilution, incubation and centrifugation were repeated a total of three times. Prior to use in the NMDA-specific L-[^3 H]-glutamate binding assay, the SPM were thawed, diluted twenty fold with 50 mM Tris/acetate (pH 7.4 containing 0.04% (v/v) Triton X-100), incubated for 30 minutes at 37° C. and centrifuged as described above. The Triton X-100 treated membranes were washed with 50 mM Tris/acetate (pH 7.4) and centrifuged at 100,000 g for 15 minutes a total of four times. The basic procedure for the receptor subclass binding assays was similar.”

[3H]MK-801 receptor = MK-801 Modulation Assay ([3H]MK-801 binding, synaptic plasma membranes from rat forebrain); settings: 2.0 nM [3H]MK-801, pH 7.4, 120 min, 25° C.; decrease in specific basal binding; read-out: IC50, inhibition of [3H]MK-801 binding
Protocol: [^3 H]MK-801 binding was performed using Triton X-100 washed synaptic plasma membranes (SPM) prepared from rat forebrain (30-45 day old, male Sprague-Dawley; Sasco, St. Charles, MO) as described previously [J. W. Thomas, W. F. Hood, J. B. Monahan, P. C. Contreras and T. L. O'Donohue, Brain Res., 442, 396-398 (1988)]. The assay was initiated by the addition of SPM (0.20-0.30 mg) to an incubation containing 2.0 nM [^3 H]MK-801 (15 Ci/mmole; New England Nuclear, Boston, MA) and various concentrations of the appropriate test compound in a total volume of 0.5 ml (all additions were made in 50mM Tris/acetate buffer, pH 7.4) and continued for 120 min at 25° C. The samples were then filtered through glass fiber filters (Schleicher and Schuell #32) which were pretreated with 0.05% (v/v) polyethylenimine. The filters were washed and the radioactivity quantitated by liquid scintillation spectrometry. Inhibition of [^3 H]MK-801 binding was measured as a decrease in specific basal binding (basal binding=2583 ±381 DPM) with nonspecific binding as the residual binding in the presence of 60 μM MK-801 (562 ±30 DPM).

[3H]glycine binding = Glycine Binding Assay ([3H]glycine, synaptic plasma membranes from rat forebrain); settings: 10 nM [3H]glycine, pH 7.4
Protocol: Synaptic plasma membranes (SPM) were prepared from rat forebrain and stored as previously described [J. B. Monahan and J. Michel, J. Neurochem., 48, 1699-1708 (1987)]. Frozen membranes were thawed and diluted 1:20 with 0.04% Triton X-100 in 50 mM Tris/acetate (pH 7.4). Following incubation at 37° C. for 30 min., the SPM were collected by centrifugation at 95,000×g for 15 min. The pellet was resuspended in 50 mM Tris/acetate (pH 7.4, Triton-free) and hand-homogenized five times. The membranes were again centrifuged as above. The pellet was washed two additional times with 50 mM Tris/acetate (without homogenization) and centrifuged. The final pellet was resuspended with homogenization in 50 mM Tris/acetate. In the general receptor binding assay procedure, 10 nM [^3 H]glycine was added to the appropriate concentration of the test compounds and the assay initiated by the addition of 0.2-0.4 mg of ice cold SPM. […] Beckman MP scintillation cocktail (5 ml) containing 7 ml/liter acetic acid was then added and the samples counted on a Beckman LS 5800 liquid scintillation counter with automatic corrections for quenching and counting efficiency. […] The binding of [^3 H]glycine to the SPM was analyzed using Scatchard and Hill transformations and the Ki for other compounds was determined using logit-log analysis. […]

Row | Compound | Ki (NMDA receptor) | other results
1 | NC(CCCCCP(=O)(O)O)C(=O)O (racemic) [D,L-AP7, D,L-2-amino-7-phosphonoheptanoic acid] | 5.4 µM | Ki [1]: > 300 µM
2 | O=C(O)C1Cc2c(cccc2P(=O)(O)O)CN1 (single isomer, unassigned) [Ex. 14] | 3.1 µM | 
3 | O=C(O)C1Cc2c(cccc2P(=O)(O)O)CN1 (single isomer, unassigned; (+)) [Ex. 13, (+)-3-carboxy-5-phosphono-1,2,3,4-tetrahydroisoquinoline] | 0.9 µM | 
4 | N[C@H](CCCCCP(=O)(O)O)C(=O)O [D-AP7] | 4 µM | Ki [1]: > 300 µM
5 | Cl.O=C(O)C1Cc2c(cccc2P(=O)(O)O)CN1 (centres unmarked) [Ex. 2, 3-carboxy-5-phosphono-1,2,3,4-tetrahydroisoquinoline hydrochloride] | 1.6 µM | Ki [1]: > 300 µM; inhibition of TCP binding ([2]; at 5 μM): 64%; inhibition of TCP binding ([2]; at 50 μM): 91%; Kainate receptor binding Ki (KA (kainate) receptor): ~ 300 μM; IC50 ([3H]MK-801 receptor): 0.48 µM; maximum inhibition of [3H]-glycine binding ([3H]glycine binding): approximately 40%; IC20 ([3H]glycine binding; calculated, based on maximum inhibition of approximately 40%): 1.9 µM
6 | O=C(O)C1CC2=C(CC=CC2P(=O)(O)O)CN1 (centres unmarked) [Ex. 3, 3-carboxy-5-phosphono-1,2,3,4,5,8-hexahydroisoquinoline] | 3 µM | 
7 | O=C(O)C1CC2=C(CCCC2P(=O)(O)O)CN1 (centres unmarked) [Ex. 4, 3-carboxy-5-phosphono-1,2,3,4,5,6,7,8-octahydroisoquinoline] | 1.2 µM | 
8 | O=C(O)C1CC2C(CCCC2P(=O)(O)O)CN1 (centres unmarked) [Ex. 5] | 1.6 µM | IC50 ([3H]MK-801 receptor): 1.38 µM
9 | O=C(O)C1CC2C(CCCC2P(=O)(O)O)CN1 (centres unmarked) [Ex. 6] | 11.2 µM | 
10 | O=C(O)C1CC2C(CCCC2P(=O)(O)O)CN1 (centres unmarked) [Ex. 7] | 1.3 µM | 
11 | CCOC(=O)C1Cc2c(cccc2P(=O)(O)O)CN1 (centres unmarked) [Ex. 15, 5-phosphono-3-(ethoxycarbonyl)-1,2,3,4-tetrahydroisoquinoline] | > 100 µM | 
12 | Cc1ccc2c(c1P(=O)(O)O)CC(C(=O)O)NC2 (centres unmarked) [Ex. 16] | 5.9 µM | 
13 | O=C(O)C1Cc2c(cccc2CP(=O)(O)O)CN1 (centres unmarked) [Ex. 17, 3-carboxy-5-(phosphonomethyl)-1,2,3,4-tetrahydroisoquinoline] | 18 µM | 
